The nature of data set [1]: Lipophilicity, […] of the compound at pH 6.5. It is filed as physicochemical. The conditions noted are these: buffer.
Data set [2] is filed under the species Mus musculus. As to the kind of experiment: Analgesic activity in CCI-induced neuropathic pain in wild type C57BL/6 mouse model assessed as reduction in paw threshold pain measured after 2 hrs. It is filed as functional.
Data set [3] relates to Mus musculus. Kind of data set: Analgesic activity in CCI-induced neuropathic pain mouse model assessed as increase in mechanical paw withdrawal threshold at 5 mg/kg,ip administration measured after 30 mins by von frey test. Type of data set: functional, organism-based. Conditions: 0.5 h.
The target of data set [4] is T1, Transient receptor potential cation channel subfamily V member 1 (Homo sapiens, UniProt Q8NER1). As to the kind of experiment: Antagonist activity at human recombinant TPRV1.
T1 sequence (Q8NER1 whole entry): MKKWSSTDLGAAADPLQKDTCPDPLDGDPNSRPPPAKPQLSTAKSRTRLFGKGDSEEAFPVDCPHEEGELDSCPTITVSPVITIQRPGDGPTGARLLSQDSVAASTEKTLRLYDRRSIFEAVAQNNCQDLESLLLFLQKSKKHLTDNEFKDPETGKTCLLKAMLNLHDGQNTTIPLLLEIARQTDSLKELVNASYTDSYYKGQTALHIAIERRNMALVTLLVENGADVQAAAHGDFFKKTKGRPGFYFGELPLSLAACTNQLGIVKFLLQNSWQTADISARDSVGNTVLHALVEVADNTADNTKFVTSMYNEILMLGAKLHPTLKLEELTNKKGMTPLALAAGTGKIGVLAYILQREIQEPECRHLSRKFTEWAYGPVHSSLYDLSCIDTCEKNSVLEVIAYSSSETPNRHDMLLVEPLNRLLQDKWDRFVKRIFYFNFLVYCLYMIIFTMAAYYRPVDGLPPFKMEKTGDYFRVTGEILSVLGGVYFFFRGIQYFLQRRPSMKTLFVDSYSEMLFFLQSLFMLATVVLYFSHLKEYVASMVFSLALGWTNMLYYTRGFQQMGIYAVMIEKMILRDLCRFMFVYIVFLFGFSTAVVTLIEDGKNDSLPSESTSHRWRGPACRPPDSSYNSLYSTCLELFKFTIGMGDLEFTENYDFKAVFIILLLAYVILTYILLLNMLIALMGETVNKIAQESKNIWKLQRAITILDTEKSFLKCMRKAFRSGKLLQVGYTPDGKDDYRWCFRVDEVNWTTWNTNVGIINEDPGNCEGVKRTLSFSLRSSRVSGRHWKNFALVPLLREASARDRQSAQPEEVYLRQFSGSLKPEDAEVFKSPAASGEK
Data set [5] concerns the target T1, Transient receptor potential cation channel subfamily V member 1. As to the kind of experiment: Antagonist activity at TRPV1 (unknown origin).
A short description of data set [6]: Lipophilicity, log P of the compound in PBS buffer. It is filed as physicochemical.
In data set [7] the target is T1, Transient receptor potential cation channel subfamily V member 1. Kind of data set: Agonist activity at human TRPV1 overexpressed in HEK293 cells incubated for 1 hr by Fluo-4 AM dye based microscopic analysis. Type of data set: cell-based.
Data set [8] shares this target. Kind of data set: Activation of human TRPV1 expressed in HEK293F cells. It is filed as cell-based.
The target is the same in data set [9]. Kind of data set: Binding affinity to human TRPV1 assessed as inhibition constant by SPR analysis. On the technique in general: In SPR one partner is held on a chip, and binding of the other changes the refractive index at the surface.
Data set [10] shares this target. As to the kind of experiment: Inhibition of TRPV1 (unknown origin).

The values that follow come from ChEMBL document CHEMBL5385859, “Research progress and challenges of TRPV1 channel modulators as a prospective therapy for diabetic neuropathic pain” (Eur J Med Chem, 2023).

SMILES strings stand for the structures. pEC50, pIC50, pKi: −log10 of the molar value.

As a reminder, the logD is lipophilicity at a set pH, counting ionised and neutral species. Low values mean lower lipophilicity, high ones higher lipophilicity. The term pEC50 denotes the EC50 on a negative log10 scale, so that one unit is a factor of ten. One may read the pIC50 as the IC50 on a negative log10 scale, so that one unit is a factor of ten. What is called logP is the decadic logarithm of the partition coefficient of the neutral form, usually between octanol and water. A higher logP goes with a more lipophilic compound. Broadly, the pKi is the negative decadic logarithm of the Ki, by convention in mol/L.

`O=C(Nc1ccccc1Br)N[C@@H]1CCN(c2ccc(C(F)(F)F)cn2)C1` [SB-705498] gave a logD in [1] of 3.98. Also, the Activity in the data set listed under Mus musculus [2] is reported as 8.8 nM.

In the case of `C=C(C)[C@]12C[C@@H](C)[C@@]34O[C@](Cc5ccccc5)(O[C@@H]1[C@@H]3C=C(COC(=O)Cc1ccc(O)c(OC)c1)C[C@]1(O)C(=O)C(C)=C[C@@H]41)O2` [RESINIFERATOXIN], the pEC50 with Mus musculus [3] is 6.04.

For the compound `Cc1ccc(N2c3cccc(C(=O)Nc4ccc(OCC(F)(F)F)nc4)c3OC[C@@H]2CO)nc1` [JTS-653], the logD in [1] is 3.83. Besides, the pIC50 in data set [4] was 6.63.

As for `O=C(Nc1ccc(C(F)(F)F)cn1)N1CC=C(c2ncc([C@H](O)CO)cc2Cl)CC1`, the pH-dependent lipophilicity (logD) in [1] turned out to be 2.11.

In data set [5], `CC(C)(C)c1ccc(CNC(=S)NCc2ccc(NS(C)(=O)=O)c(F)c2)cc1` gave a pIC50 of 8.10.

In data set [5], `CC(C)(C)c1ccc(CNC(=S)NCc2ccc(NS(C)(=O)=O)cc2)cc1` showed a pIC50 of 9.96.

In data set [6], `CNCC1CCCCN1C(=O)Oc1ccc(CNC(=O)CCCC/C=C/C(C)C)cc1OC` (centres undefined) [VOCACAPSAICIN] registered a logP of 4.32.

In data set [7], `O=C(Nc1ccc(C(F)(F)F)cc1)N1CC=C(c2ncc([C@H](O)CO)cc2Cl)CC1` gave a pIC50 of 7.47.

For the compound `O=C(Nc1cccc2cnccc12)N1CCC[C@H]1CNc1ccc(Br)cc1`, the pIC50 in data set [8] is 7.08.

Consider `CC(C)=CCCC1(C)CC1CO` (centres undefined), for which, in [6], the logP stood at 2.5.

`CC(=O)Nc1nc2c(Oc3cc(-c4ccc(C(F)(F)F)cc4)ncn3)cccc2s1` [AMG-517]: the Activity in the data set filed under Mus musculus [2] is listed as 760 nM.

Compound `COc1cc(C/N=C(\S)NCc2ccc(Cl)cc2)cc(I)c1O` had a pIC50 in data set [5] of 6.97.

In data set [1], `C[C@H](NC(=O)Cn1cnc2ccc(F)c(F)c21)c1ccc(C(C)(C)C)cc1` yielded a log distribution coefficient (logD) of 4.34. The negative logarithm of the IC50 (pIC50) in data set [4] is 8.30.

As for `CC(C)(C)c1ccc2c(c1)CC[C@H]2NC(=O)Nc1cccc2[nH]ncc12` [ABT-102], the logD in [1] stood at 4.59.

`CC(C)(C)C(=O)OCC(CNC(=S)NCc1ccc(NS(C)(=O)=O)c(F)c1)Cc1ccccc1` (centres undefined): the pKi in data set [9] is 8.11.

Take `COc1cc(CNC(=O)CCCC/C=C/C(C)C)ccc1O` [CAPSAICIN]: the logP in [6] was 3.74.

The compound `CC(C)c1nc2cc(O)ccc2c(=O)n1-c1ccc(C#N)cc1` returned a logD in data set [1] of 3.45.

Regarding `CC(C)(O)c1ccccc1-c1ccc2[nH]c(/C=C/c3ccc(C(F)(F)F)cc3)nc2c1`, the pH-dependent lipophilicity (logD) in data set [1] is 6.27.

Regarding `CC(C)c1cccc(C(C)C)c1O` [PROPOFOL], in data set [10], the pIC50 is 8.30. The compound further yielded a logP in data set [6] of 4.15.

For the compound `CCCc1nc(C(F)(F)F)ccc1/C=C/C(=O)N[C@H](C)c1cc(F)c(NS(C)(=O)=O)c(F)c1`, in [1], the logD turned out to be 3.67.
